The record followed here is patent publication US20220313651A1, “INHIBITORS OF ZIKA VIRUS INFECTION” (priority 2019, published 2022).

In data set [1] the test system is ZIKV human strain PLCal_ZV (2013/Thailand). The experiment in a line: Plaque reduction inhibition assay in Vero E6 cells, ZIKV PLCal_ZV. The data set is classed as cell-based, Zika virus (ZIKV). The procedure:
(§1) A plaque reduction inhibition assay was carried out to measure the inhibitory activity of Z-medicaments against infections of ZIKV and DENV. […] The compound-virus mixtures were then transferred to Vero E6 cells (10^5/well) and incubated at 37° C. for 1 h.

Data set [2] relates to ZIKV rhesus macaque strain MR 766 (1947/Uganda). The experiment in a line: Plaque reduction inhibition assay in Vero E6 cells, ZIKV MR 766. The data set is classed as cell-based, Zika virus (ZIKV). On the procedure:
as §1

Data set [3] relates to DENV-1-V1792 (2007/Vietnam). The experiment in a line: microbe, parasite or virus in culture. The source says: (§2) Vero E6 and LLC-MK2 cells were maintained in Dulbecco's Modified Eagle Medium (DMEM) supplemented with 8% fetal bovine serum (FBS) and penicillin and streptomycin (P/S). C6/36 cells were maintained in Eagle's Minimal Essential Medium (EMEM) supplemented with 5% FBS and P/S. ZIKV strains, including human strains PAN2016 (2016/Panama), R116265 (2016/Mexico), PAN2015 (2015/Panama), FLR (2015/Colombia), R103451 (2015/Honduras), PRVABC59 (2015/Puerto Rico), PLCal_ZV (2013/Thailand), and IbH 30656 (1968/Nigeria), mosquito strain MEX 2-81 (2016/Mexico), and rhesus macaque strain MR 766 (1947/Uganda), were used in the studies. These ZIKV strains were cultured in Vero E6 cells, and viral titers were detected by a standard plaque-forming assay. DENV human strains, including type 1: DENV-1-V1792 (2007/Vietnam), type 2: DENV-2-V594 (2006/Puerto Rico), type 3: DENV-3-V1043 (2006/Puerto Rico), and type 4: DENV-4-PR 06-65-740 (2006/Puerto Rico), were cultured in C6/36 cells, and the viral titers were determined by plaque-forming assay as described above.
(§3) The inhibitory activity of the Z-medicaments against DENV-1-4 was performed following the similar procedures as for ZIKV, except that LLC-MK2 cells were used for the infection, and cells were cultured at 37° C. for 14-16 days before staining with 0.5% crystal violet.
(§4) After removal of the unbound compounds by centrifugation after addition of 3% PEG-6000, ZIKV was incubated with Vero E6 cells at 37° C. for 1 h. The cells were then washed with PBS, overlaid with DMEM containing 1% carboxymethyl cellulose and 2% FBS, and cultured at 37° C. for 4-5 days, followed by staining with 0.5% crystal violet.

In data set [4] the test system is DENV-2-V594 (2006/Puerto Rico). The experiment in a line: microbe, parasite or virus in culture.
Text: as §2, §3, §4

Data set [5] concerns DENV-3-V1043 (2006/Puerto Rico). The experiment in a line: microbe, parasite or virus in culture.
Text: as §2, §3, §4

The test system of data set [6] is DENV-4-PR 06-65-740 (2006/Puerto Rico). The experiment in a line: microbe, parasite or virus in culture.
Text: as §2, §3, §4

Setting [7] is: Zika virus, Vero C1008, Vero E6 cells, Table 1, read-out: IC50 against ZIKV strain PLCal_ZV.
The mark [8] stands for this setting: Zika virus, Vero C1008, in Macaca mulatta, Vero E6 cells, Table 1, read-out: IC50 against ZIKV strain MR 766.
Setting [9] is: Dengue virus, DENV1, LLC-MK2, read-out: IC50 DENV-1-V1792, LLC-MK2 cells, Table 5.
The mark [10] stands for this setting: Dengue virus, DENV2, LLC-MK2, read-out: IC50 DENV-2-V594, LLC-MK2 cells, Table 5.
The mark [11] stands for this setting: Dengue virus, DENV3, LLC-MK2, read-out: IC50 DENV-3-V1043, LLC-MK2 cells, Table 5.
Setting [12] is: Dengue virus, DENV4, LLC-MK2, read-out: IC50 DENV-4-PR 06-65-740, LLC-MK2 cells, Table 5.

Read-outs that look alike come from different tables or passages of the source.

Take `Cc1cc2c(C(C)C)c(O)c(O)c(C=O)c2c(O)c1-c1c(C)cc2c(C(C)C)c(O)c(O)c(C=O)c2c1O` [Gossypol, gossypol]: the IC50 – broadly, the midpoint of a concentration-inhibition curve – in data set [1] (setting [7]) amounted to 1980 ± 70 nM; in data set [1] (Zika virus, Vero C1008, read-out: ZIKV strains IC50, PLCal_ZV), 2880 ± 190 nM; in data set [2] (setting [8]), 3.75 ± 0.01 µM; in data set [2] (Zika virus, Vero C1008, in Macaca mulatta, read-out: ZIKV strains IC50, MR766), 4.14 ± 0.05 µM; in data set [3] (setting [9]), 1870 nM; in data set [3] (Dengue virus, DENV1, LLC-MK2, read-out: IC50 DENV-1-V1792, LLC-MK2 cells, Table 8) it was 2060 ± 130 nM. The IC50 was 1890 nM in data set [4] (setting [10]); 1910 ± 10 nM in data set [4] (Dengue virus, DENV2, LLC-MK2, read-out: IC50 DENV-2-V594, LLC-MK2 cells, Table 8); 3.7 µM in data set [5] (setting [11]); 3.42 ± 0.11 µM in data set [5] (Dengue virus, DENV3, LLC-MK2, read-out: IC50 DENV-3-V1043, LLC-MK2 cells, Table 8); 2600 nM in data set [6] (setting [12]); 2830 ± 70 nM in data set [6] (Dengue virus, DENV4, LLC-MK2, read-out: IC50 DENV-4-PR 06-65-740, LLC-MK2 cells, Table 8).

For `C[C@@H]1CC[C@@]2(OC1)O[C@H]1[C@@H](O)[C@H]3[C@@H]4CC[C@H]5C[C@@H](O[C@@H]6O[C@H](CO)[C@H](O[C@@H]7O[C@H](CO)[C@@H](O)[C@H](O[C@@H]8OC[C@@H](O)[C@H](O)[C@H]8O)[C@H]7O[C@@H]7O[C@H](CO)[C@H](O)[C@H](O[C@@H]8O[C@H](CO)[C@@H](O)[C@H](O)[C@H]8O)[C@H]7O)[C@H](O)[C@H]6O)[C@H](O)C[C@]5(C)[C@H]4CC[C@]3(C)[C@H]1[C@@H]2C` [Digitonin, digitonin], the IC50 in data set [1] (setting [7]) was determined as 3190 ± 250 nM; in data set [2] (setting [8]), 3.77 ± 0.31 µM; in data set [3] (setting [9]) it was 5210 ± 350 nM; in data set [4] (setting [10]), 6560 ± 210 nM; in data set [5] (setting [11]) it was 4.07 ± 0.83 µM; in data set [6] (setting [12]), 6440 ± 340 nM.

Turning to `Cc1cc2c(C(C)C)c(O)c(O)c(/C=N/n3c(=O)[nH][nH]c3=O)c2c(O)c1-c1c(C)cc2c(C(C)C)c(O)c(O)c(/C=N/n3c(=O)[nH][nH]c3=O)c2c1O` [ST087010], the IC50 amounted to 2210 ± 80 nM in data set [1] (Vero E6 cells, Table 7, gossypol derivatives, read-out: ZIKV strains IC50, PLCal_ZV); 3.52 ± 0.2 µM in data set [2] (Vero E6 cells, Table 7, gossypol derivatives, read-out: ZIKV strains IC50, MR766); 3010 ± 110 nM in data set [3] (read-out: IC50 DENV-1-V1792, LLC-MK2 cells, Table 8); 3190 ± 10 nM in data set [4] (read-out: IC50 DENV-2-V594, LLC-MK2 cells, Table 8); 3.33 ± 0.08 µM in data set [5] (read-out: IC50 DENV-3-V1043, LLC-MK2 cells, Table 8); 2980 ± 180 nM in data set [6] (read-out: IC50 DENV-4-PR 06-65-740, LLC-MK2 cells, Table 8). The “SI (CC50/IC50), DENV-1-V1792” value in data set [3] is 15.7. The “SI (CC50/IC50), DENV-2-V594” value in data set [4] came to 14.8. In data set [5], the “SI (CC50/IC50), DENV-3-V1043” value is on record as 14.2. Also, in data set [6], the “SI (CC50/IC50), DENV-4-PR 06-65-740” value was 15.8.
